Results published in ChEMBL document CHEMBL1201862, “PubChem BioAssay data set” (2004).
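Values below derive from 48-hour exposures of cells grown in 96-well plates, with endpoints linearly interpolated between the two concentrations bracketing the appropriate inhibition level. Here, GI50 denotes the concentration required for 50% inhibition of growth.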 Calls of active or inactive are those of the source. Cut-off read from the data, not from the text of the source: active = GI50 up to about 1.1 µM and inactive = higher.

Legend:
Experiment in all cases: NCI anticancer screen, dose series, 48 h
MCF7 = test system: MCF7
UACC-257 = test system: UACC-257
KM12 = test system: KM12
HCT-15 = test system: HCT-15
NCI-H23 = test system: NCI-H23
Malme-3M = test system: Malme-3M
HT-29 = test system: HT-29
TK-10 = test system: TK-10
A498 = test system: A498
MDA-N = test system: MDA-N
HCT-116 = test system: HCT-116
OVCAR-3 = test system: OVCAR-3
ACHN = test system: ACHN
SK-MEL-28 = test system: SK-MEL-28
SF-295 = test system: SF-295
786-0 = test system: 786-0
OVCAR-5 = test system: OVCAR-5
HOP-92 = test system: HOP-92
BT-549 = test system: BT-549
NCI-H460 = test system: NCI-H460
SNB-19 = test system: SNB-19
OVCAR-8 = test system: OVCAR-8
RPMI-8226 = test system: RPMI-8226
HOP-62 = test system: HOP-62
T47D = test system: T47D
SNB-75 = test system: SNB-75
UO-31 = test system: UO-31
A549 = test system: A549
NCI-H226 = test system: NCI-H226
K562 = test system: K562
SR = test system: SR
MOLT-4 = test system: MOLT-4
RXF 393 = test system: RXF 393
SF-539 = test system: SF-539
HCC 2998 = test system: HCC 2998
CCRF-CEM = test system: CCRF-CEM
DU-145 = test system: DU-145
NCI/ADR-RES = test system: NCI/ADR-RES
SK-MEL-5 = test system: SK-MEL-5
EKVX = test system: EKVX
SK-OV-3 = test system: SK-OV-3
Hs-578T = test system: Hs-578T
PC-3 = test system: PC-3
COLO 205 = test system: COLO 205
SF-268 = test system: SF-268
HL-60 = test system: HL-60
SN12C = test system: SN12C
UACC-62 = test system: UACC-62
U-251 = test system: U-251
M14 = test system: M14
IGROV-1 = test system: IGROV-1
MDA-MB-435 = test system: MDA-MB-435
SW-620 = test system: SW-620
MDA-MB-231 = test system: MDA-MB-231
SK-MEL-2 = test system: SK-MEL-2
NCI-H522 = test system: NCI-H522
CAKI-1 = test system: CAKI-1
LOX IMVI = test system: LOX IMVI
OVCAR-4 = test system: OVCAR-4

With `Cc1cc2ccccc2n2c1nc1ccccc12` as the compound, how does the GI50 (MCF7) read?
Its GI50 is > 100 µM (inactive).

And the GI50 (UACC-257)?
Its GI50 is > 100 µM (inactive).

What about the GI50 (KM12) of the same compound?
The GI50 was > 100 µM (inactive).

And the GI50 (HCT-15)?
Its GI50 is > 100 µM.

What about the GI50 (NCI-H23) of the same compound?
Its GI50 is > 100 µM (inactive).

And the GI50 (Malme-3M)?
Its GI50 is > 100 µM (inactive).

What about the GI50 (HT-29) of the same compound?
The GI50 was > 100 µM (inactive).

And the GI50 (TK-10)?
The GI50 was > 100 µM (inactive).

What about the GI50 (A498) of the same compound?
Its GI50 is 15.2 µM (inactive).

And the GI50 (MDA-N)?
The GI50 was > 100 µM (inactive).

And the GI50 (HCT-116)?
The GI50 was > 100 µM (inactive).

What about the GI50 (OVCAR-3) of the same compound?
The GI50 was > 100 µM (inactive).

And the GI50 (ACHN)?
The GI50 was > 100 µM (inactive).

What about the GI50 (SK-MEL-28) of the same compound?
The GI50 was > 100 µM (inactive).

What about the GI50 (SF-295) of the same compound?
The GI50 was > 100 µM (inactive).

What about the GI50 (786-0) of the same compound?
The GI50 was > 100 µM (inactive).

What about the GI50 (OVCAR-5) of the same compound?
The GI50 was > 100 µM (inactive).

What about the GI50 (HOP-92) of the same compound?
The GI50 was > 100 µM (inactive).

What about the GI50 (BT-549) of the same compound?
Its GI50 is > 100 µM (inactive).

What about the GI50 (NCI-H460) of the same compound?
Its GI50 is > 100 µM (inactive).

And the GI50 (SNB-19)?
Its GI50 is > 100 µM (inactive).

And the GI50 (OVCAR-8)?
Its GI50 is > 100 µM (inactive).

And the GI50 (RPMI-8226)?
Its GI50 is > 100 µM (inactive).

What about the GI50 (HOP-62) of the same compound?
The GI50 was > 100 µM (inactive).

What about the GI50 (T47D) of the same compound?
Its GI50 is > 100 µM (inactive).

And the GI50 (SNB-75)?
Its GI50 is > 100 µM (inactive).

What about the GI50 (UO-31) of the same compound?
Its GI50 is > 100 µM (inactive).

And the GI50 (A549)?
Its GI50 is > 100 µM (inactive).

And the GI50 (NCI-H226)?
The GI50 was > 100 µM (inactive).

What about the GI50 (K562) of the same compound?
Its GI50 is > 100 µM (inactive).

What about the GI50 (SR) of the same compound?
The GI50 was > 100 µM (inactive).

And the GI50 (MOLT-4)?
Its GI50 is > 100 µM (inactive).

And the GI50 (RXF 393)?
The GI50 was > 100 µM (inactive).

And the GI50 (SF-539)?
Its GI50 is > 100 µM (inactive).

What about the GI50 (HCC 2998) of the same compound?
The GI50 was > 100 µM (inactive).

And the GI50 (CCRF-CEM)?
The GI50 was > 100 µM (inactive).

And the GI50 (DU-145)?
The GI50 was > 100 µM (inactive).

And the GI50 (NCI/ADR-RES)?
Its GI50 is > 100 µM (inactive).

What about the GI50 (SK-MEL-5) of the same compound?
Its GI50 is > 100 µM (inactive).

And the GI50 (EKVX)?
Its GI50 is > 100 µM (inactive).

What about the GI50 (SK-OV-3) of the same compound?
Its GI50 is > 100 µM (inactive).

What about the GI50 (Hs-578T) of the same compound?
Its GI50 is > 100 µM (inactive).

And the GI50 (PC-3)?
Its GI50 is > 100 µM (inactive).

What about the GI50 (COLO 205) of the same compound?
The GI50 was > 100 µM (inactive).

What about the GI50 (SF-268) of the same compound?
Its GI50 is > 100 µM (inactive).

And the GI50 (HL-60)?
The GI50 was > 100 µM (inactive).

And the GI50 (SN12C)?
Its GI50 is > 100 µM (inactive).

And the GI50 (UACC-62)?
Its GI50 is > 100 µM (inactive).

What about the GI50 (U-251) of the same compound?
Its GI50 is > 100 µM (inactive).

And the GI50 (M14)?
The GI50 was > 100 µM (inactive).

What about the GI50 (IGROV-1) of the same compound?
The GI50 was > 100 µM (inactive).

What about the GI50 (MDA-MB-435) of the same compound?
The GI50 was > 100 µM (inactive).

What about the GI50 (SW-620) of the same compound?
The GI50 was > 100 µM (inactive).

How did the GI50 (MCF7) turn out when `Cc1cc2[nH]c3c(C#N)c(-c4ccccc4)c(/C=N/c4ccc(Cl)cc4)c(=O)n3c2cc1C` was run?
Its GI50 is > 100 µM (inactive).

And the GI50 (UACC-257)?
The GI50 was > 100 µM (inactive).

And the GI50 (KM12)?
The GI50 was > 100 µM (inactive).

And the GI50 (HCT-15)?
Its GI50 is > 100 µM.

What about the GI50 (NCI-H23) of the same compound?
The GI50 was > 100 µM (inactive).

And the GI50 (MDA-MB-231)?
The GI50 was > 100 µM (inactive).

What about the GI50 (Malme-3M) of the same compound?
The GI50 was > 100 µM (inactive).

What about the GI50 (TK-10) of the same compound?
Its GI50 is > 100 µM (inactive).

And the GI50 (A498)?
The GI50 was > 100 µM (inactive).

And the GI50 (MDA-N)?
Its GI50 is > 100 µM (inactive).

And the GI50 (HCT-116)?
Its GI50 is > 100 µM (inactive).

What about the GI50 (SK-MEL-2) of the same compound?
Its GI50 is > 100 µM (inactive).

What about the GI50 (OVCAR-3) of the same compound?
Its GI50 is > 100 µM (inactive).

And the GI50 (ACHN)?
The GI50 was > 100 µM (inactive).

What about the GI50 (SK-MEL-28) of the same compound?
Its GI50 is > 100 µM (inactive).

And the GI50 (SF-295)?
The GI50 was > 100 µM (inactive).

What about the GI50 (786-0) of the same compound?
The GI50 was > 100 µM (inactive).

And the GI50 (OVCAR-5)?
The GI50 was > 100 µM (inactive).

What about the GI50 (BT-549) of the same compound?
Its GI50 is > 100 µM (inactive).

And the GI50 (NCI-H460)?
Its GI50 is > 100 µM (inactive).

What about the GI50 (NCI-H522) of the same compound?
The GI50 was > 100 µM (inactive).

And the GI50 (SNB-19)?
Its GI50 is > 100 µM (inactive).

What about the GI50 (OVCAR-8) of the same compound?
The GI50 was > 100 µM (inactive).

What about the GI50 (RPMI-8226) of the same compound?
The GI50 was > 100 µM (inactive).

And the GI50 (HOP-62)?
Its GI50 is > 100 µM (inactive).

What about the GI50 (T47D) of the same compound?
The GI50 was > 100 µM (inactive).

And the GI50 (SNB-75)?
Its GI50 is > 100 µM (inactive).

And the GI50 (UO-31)?
The GI50 was > 100 µM (inactive).

And the GI50 (CAKI-1)?
The GI50 was > 100 µM (inactive).

And the GI50 (A549)?
The GI50 was > 100 µM (inactive).

What about the GI50 (NCI-H226) of the same compound?
The GI50 was > 100 µM (inactive).

What about the GI50 (RXF 393) of the same compound?
The GI50 was > 100 µM (inactive).

What about the GI50 (SF-539) of the same compound?
Its GI50 is > 100 µM (inactive).

What about the GI50 (HCC 2998) of the same compound?
Its GI50 is > 100 µM (inactive).

And the GI50 (CCRF-CEM)?
The GI50 was > 100 µM (inactive).

And the GI50 (LOX IMVI)?
Its GI50 is > 100 µM (inactive).

And the GI50 (NCI/ADR-RES)?
The GI50 was > 100 µM (inactive).

What about the GI50 (SK-MEL-5) of the same compound?
The GI50 was > 100 µM (inactive).

What about the GI50 (EKVX) of the same compound?
The GI50 was > 100 µM (inactive).

And the GI50 (SK-OV-3)?
Its GI50 is > 100 µM (inactive).

And the GI50 (OVCAR-4)?
The GI50 was > 100 µM (inactive).

And the GI50 (PC-3)?
The GI50 was > 100 µM (inactive).

What about the GI50 (COLO 205) of the same compound?
The GI50 was > 100 µM (inactive).

And the GI50 (SF-268)?
Its GI50 is > 100 µM (inactive).

What about the GI50 (SN12C) of the same compound?
The GI50 was > 100 µM (inactive).

What about the GI50 (U-251) of the same compound?
Its GI50 is > 100 µM (inactive).

And the GI50 (M14)?
Its GI50 is > 100 µM (inactive).

What about the GI50 (MDA-MB-435) of the same compound?
Its GI50 is > 100 µM (inactive).

And the GI50 (SW-620)?
The GI50 was > 100 µM (inactive).
